Measured values taken from publication PMC10778758, “Dithioethanol (DTE)-Conjugated Deoxyribose Cyclic Dinucleotide Prodrugs (DTE-dCDNs) as STING Agonist” (International Journal of Molecular Sciences, 2023).

Legend:
[1] = test system: CT-26 cells; assay: RT-qPCR of IFN-β mRNA in CT-26 cells; type: cell-based; details: CT-26, prodrug 9 and ADU-S100 10 μM, CDNs 100 μM, 4 h
Description: Real-time quantitative PCR (RT-qPCR). The mRNA expression levels of diverse cytokines were measured using quantitative RT-PCR (RT-qPCR) assays. THP-1 cells or CT26 cells were incubated with the compounds for 4 h, subsequently harvested for RNA isolation according to the manufacturer’s instructions of RNApure Tissue&Cell Kit (DNase I) (CWBIO, Cambridge, MA, USA catalogue no. CW0560S). Next, 1 μg RNA was reversely transcribed to cDNA by TransScript All-in-One First-Strand cDNA Synthesis SuperMix for qPCR (One-Step gDNA Removal) (TransGen, Beijing, China). To examine the mRNA levels, real-time PCR was performed in a CFX96 Real-Time PCR system (Bio-RAD, Hercules, CA, USA) using PerfectStart Green qPCR Super Mix (TransGen) and primers (Sangon Biotech, Shanghai, China). The expression level was calculated according to the formula (2^−∆∆Ct) using the GAPDH or β-actin as the internal reference gene and the relative gene expression fold was normalized to the DMSO-treated cells. The THP-1 and CT26 cell lines were obtained from American Type Culture Collection (ATCC, Manassas, VA, USA). […]
expression levels of IFN-β were assessed by real-time quantitative PCR (qPCR) under the treatment of prodrug 9 (10 μM), 3′,3′-c-di-dAMP (100 μM), 2′,3′-cGAMP (100 μM) and ADU-S100 (10 μM) for 4 h.
Figure S3. […]
levels of IFN-β were assessed by an enzyme-linked immunosorbent assay (ELISA). […]

[2] = test system: THP-1 cells; details: human, 10 μM
Description: Uptake of DTE-dCDN Prodrug. THP-1 cells were seeded at a concentration of 5 × 10^6 cells/mL into a 12-well plate. After 16 h of incubation at 37 °C in a 5% CO2 atmosphere, the compounds were added to cell cultures and the cells were collected at time points of 1 h, 2 h, 4 h, 6 h, 8 h, 12 h, and 24 h by centrifugation for 1 min at 1000× g. The media was removed completely, and the cells were washed twice with 800 μL of ice-cold PBS before being lysed with 400 μL ice-cold 70% methanol. Lysates were incubated overnight at −20 °C and then centrifuged for 20 min at 13,000× g to remove cellular debris. The supernatant was analyzed via LC/MS/MS (Agilent 1290 Infinity II/6470A)
(a) The intracellular concentration of the prodrug 9 in THP-1 cells. (b) The intracellular concentration of the parent dCDN (3′,3′-c-di-dAMP) in THP-1 cells. THP-1 cells were treated with 10 μM prodrug 9 or 100 μM parent dCDN (3′,3′-c-di-dAMP) for the indicated period of time (1, 2, 4, 6, 8, 12, 24 h), and the intracellular concentration of the metabolites in cellular extracts was determined with liquid chromatograph MS/MS analysis.

[3] = test system: HEK293T cells; assay: CCK8 cell viability, HEK293T cells; type: cell-based; details: 10 μM, 24 h
Description: Cell viability of THP-1 and HEK293T cells. A total of 5 × 10^3 HEK293T cells or THP-1 cells were seeded in 96-well plates. […] Cell counting kit-8 (CCK8) (US EVERBRIGHT, Newport Beach, CA, USA, c6005) was then used to quantitatively assess the cell viability through the OD value at 450 nm. The HEK293T cell line was obtained from American Type Culture Collection (ATCC).
Figure 8 Cell viability of THP-1 and HEK293T cells stimulated by prodrug 9 and 2′,3′-cGAMP. (a) A total of 5 × 10^3 THP-1 cells or (b) HEK293T cells were seeded in 96-well plates. Cells were stimulated with prodrug 9 (10 μM), 3′,3′-c-di-dAMP (100 μM), and 2′,3′-cGAMP (100 μM) for 24 h. Then, cell counting kit-8 (CCK8) (US EVERBRIGHT, c6005) was used to quantitatively assess cell viability through the OD value at 450 nm. Data are presented as mean ± SD, n = 3.

[4] = Release of parent dCDN from prodrug 9 in cell lysates (HPLC); type: in vitro ADME; details: 100 μM prodrug, 37 °C
Description: (§1) To analyze the reduction dependency, we performed the in vitro cleavage test by incubating prodrug 9 with a reductive substance such as GSH or DTT and cell lysates at 37 °C and then determined the change with HPLC. […] As the reductive substance or cell lysates were added, the peak for prodrug 9 disappeared and the new peaks at 1.2 min appeared in 0.5 h and 2 h, respectively. The released parent dCDN was also confirmed with 3′,3′-c-di-dAMP through UPLC-MS (Figure S1).
Prodrug 9 release parent drug initiated by cell lysates, DTT, and GSH. HEK 293T cells were plated in a 6-well plate at a density of 10^6 cell per well. After 48 h, the culture media was removed and washed with 500 μL PBS buffer. Cells were collected into 1.5 mL microtubes. An amount of 200 μL weak RIPA lysis buffer containing 1 mM protease inhibitor PMSF (LEAGENE, Trenton, NJ, USA) was added to each tube for 30 min. After centrifugation at 13,000 rpm for 10 min, the supernatant (180 μL) was transferred into a new tube. An amount of 100 μM prodrug 9 was added into the cell lysate (60 μL) in an air-bath incubator at 37 °C. […]
(§2) Figure 3 Parent dCDNs release in GSH, DTT (a), and cell lysates (b). An amount of 100 μM prodrug 9 was added into the 10 mM GSH, 10 mM DTT, and cell lysates for various times (0.5 h and 2 h) at 37 °C and analyzed with HPLC (Agilent 1260, Santa Clara, CA, USA).

[5] = Release of parent dCDN from prodrug 9 initiated by DTT or GSH (HPLC); type: in vitro ADME
Description: as §1
Amounts of 10 mM DTT or GSH were added into prodrug 9 (100 μM) in an air-bath incubator at 37 °C for 0.5 h. Afterwards, 10 μL of each mixture was injected into HPLC for analysis. The HPLC methodology was the same as above.
as §2

## Nc1ncnc2c1ncn2C1CC2OP(=O)(OCCSSc3ccccn3)OCC3OC(n4cnc5c(N)ncnc54)CC3OP(=O)(OCCSSc3ccccn3)OCC2O1 (stereo not drawn) [prodrug 9]
[1]
  induction of IFN-β transcription in CT-26 cells: did not
[2]
  time at which intracellular levels of prodrug 9 peaked: 2 h
[3]
  cell viability (CCK8), HEK293T cells: no significant influence on the growth
[4]
  time at which prodrug peak disappeared and parent dCDN peak appeared: 2 h
[5]; 100 μM prodrug, 10 mM GSH or DTT, 37 °C
  time at which prodrug peak disappeared and parent dCDN peak appeared: 0.5 h
[5]; reductive substance GSH or DTT
  time to decompose and release the parent dCDN: 30 min
